Holding throughout (type): cell-based
Experiment [1] deals with T1, human TLR9 (Homo sapiens, UniProt Q9NR96).
T1 construct: host or cells: HEK-Blue cells
T1 sequence (Q9NR96 26-1032): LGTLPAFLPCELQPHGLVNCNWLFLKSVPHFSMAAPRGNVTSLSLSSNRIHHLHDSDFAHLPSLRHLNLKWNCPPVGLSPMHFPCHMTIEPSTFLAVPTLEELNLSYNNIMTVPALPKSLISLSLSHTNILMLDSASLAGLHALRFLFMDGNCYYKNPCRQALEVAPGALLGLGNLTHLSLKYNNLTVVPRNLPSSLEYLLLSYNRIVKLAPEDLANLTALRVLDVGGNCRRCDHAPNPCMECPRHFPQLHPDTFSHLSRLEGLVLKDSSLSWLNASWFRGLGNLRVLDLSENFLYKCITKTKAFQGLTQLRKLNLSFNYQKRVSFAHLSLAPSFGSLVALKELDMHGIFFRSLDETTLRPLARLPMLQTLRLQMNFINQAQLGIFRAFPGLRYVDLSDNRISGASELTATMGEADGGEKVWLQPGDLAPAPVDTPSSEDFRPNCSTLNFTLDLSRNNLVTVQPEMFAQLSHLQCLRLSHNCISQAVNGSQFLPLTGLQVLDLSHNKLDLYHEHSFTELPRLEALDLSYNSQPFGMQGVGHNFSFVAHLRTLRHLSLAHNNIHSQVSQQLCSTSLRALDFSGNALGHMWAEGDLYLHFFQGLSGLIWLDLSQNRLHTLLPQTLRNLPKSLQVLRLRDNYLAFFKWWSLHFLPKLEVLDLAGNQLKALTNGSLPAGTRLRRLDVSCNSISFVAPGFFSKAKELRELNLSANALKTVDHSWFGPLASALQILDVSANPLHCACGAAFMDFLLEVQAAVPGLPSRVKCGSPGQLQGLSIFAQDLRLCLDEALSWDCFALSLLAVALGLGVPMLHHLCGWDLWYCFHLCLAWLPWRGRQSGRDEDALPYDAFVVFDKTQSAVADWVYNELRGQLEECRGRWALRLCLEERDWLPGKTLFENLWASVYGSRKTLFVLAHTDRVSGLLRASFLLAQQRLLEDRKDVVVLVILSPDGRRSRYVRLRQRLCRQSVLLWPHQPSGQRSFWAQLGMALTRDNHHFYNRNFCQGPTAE
The experiment is described as follows: TLR9 inhibition reporter assay (HEK-Blue cells, SEAP reporter, ODN2006 stimulation). The following applies: HEK-Blue cells overexpressing human TLR9, SEAP reporter, ODN2006 5 nM. In short, it runs like this: (§1)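 Human TLR7/8/9 HEK-Blue reporter lines; dose range 0.05 nM–50 μM; 30 min RT preincubation; stimulus gardiquimod 7.5 μM / R848 15.9 μM / ODN2006 5 nM respectively; 22 h, 37 °C; SEAP detected colorimetrically.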
(In a reporter assay the amount or activity of a reporter protein is the signal.)

Experiment [2] concerns the target T2, human TLR8 (Homo sapiens, UniProt Q9NR97).
T2 construct: host or cells: HEK-Blue cells
T2 sequence (Q9NR97 27-1041): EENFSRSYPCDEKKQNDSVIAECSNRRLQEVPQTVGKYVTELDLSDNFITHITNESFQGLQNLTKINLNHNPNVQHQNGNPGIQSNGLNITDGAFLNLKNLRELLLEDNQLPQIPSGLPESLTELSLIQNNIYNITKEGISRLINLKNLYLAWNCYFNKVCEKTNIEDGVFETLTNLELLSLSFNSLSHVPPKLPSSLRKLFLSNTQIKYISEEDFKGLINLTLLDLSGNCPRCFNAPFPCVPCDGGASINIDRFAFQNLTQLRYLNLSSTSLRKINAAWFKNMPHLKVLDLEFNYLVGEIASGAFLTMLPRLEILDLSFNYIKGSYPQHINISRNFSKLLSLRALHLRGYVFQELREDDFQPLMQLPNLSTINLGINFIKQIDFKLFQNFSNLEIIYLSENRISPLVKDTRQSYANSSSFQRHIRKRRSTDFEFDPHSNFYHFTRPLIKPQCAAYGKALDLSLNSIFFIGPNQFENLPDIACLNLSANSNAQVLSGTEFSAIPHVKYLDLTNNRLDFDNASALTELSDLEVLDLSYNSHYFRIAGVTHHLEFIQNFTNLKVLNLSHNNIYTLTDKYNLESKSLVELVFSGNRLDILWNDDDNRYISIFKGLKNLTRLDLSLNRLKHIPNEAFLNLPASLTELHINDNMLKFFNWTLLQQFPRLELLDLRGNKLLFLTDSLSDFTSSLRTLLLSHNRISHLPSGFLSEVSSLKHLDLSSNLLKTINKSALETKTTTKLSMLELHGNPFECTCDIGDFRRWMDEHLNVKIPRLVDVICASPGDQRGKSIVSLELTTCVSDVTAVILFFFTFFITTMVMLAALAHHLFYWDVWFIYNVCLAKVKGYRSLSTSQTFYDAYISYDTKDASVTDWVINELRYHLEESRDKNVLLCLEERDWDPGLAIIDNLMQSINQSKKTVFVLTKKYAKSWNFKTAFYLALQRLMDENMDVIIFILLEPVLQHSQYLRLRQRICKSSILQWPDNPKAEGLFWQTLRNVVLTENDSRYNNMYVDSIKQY
The experiment is described as follows: TLR8 inhibition reporter assay (HEK-Blue cells, SEAP reporter, R848 stimulation). The following applies: HEK-Blue cells overexpressing human TLR8, SEAP reporter, R848 15.9 μM; read-out: TLR8 IC50. In short, it runs like this: as §1

Experiment [3] has as its target T3, human TLR7 (Homo sapiens, UniProt Q9NYK1).
T3 construct: host or cells: HEK-Blue cells
T3 sequence (Q9NYK1 27-1049): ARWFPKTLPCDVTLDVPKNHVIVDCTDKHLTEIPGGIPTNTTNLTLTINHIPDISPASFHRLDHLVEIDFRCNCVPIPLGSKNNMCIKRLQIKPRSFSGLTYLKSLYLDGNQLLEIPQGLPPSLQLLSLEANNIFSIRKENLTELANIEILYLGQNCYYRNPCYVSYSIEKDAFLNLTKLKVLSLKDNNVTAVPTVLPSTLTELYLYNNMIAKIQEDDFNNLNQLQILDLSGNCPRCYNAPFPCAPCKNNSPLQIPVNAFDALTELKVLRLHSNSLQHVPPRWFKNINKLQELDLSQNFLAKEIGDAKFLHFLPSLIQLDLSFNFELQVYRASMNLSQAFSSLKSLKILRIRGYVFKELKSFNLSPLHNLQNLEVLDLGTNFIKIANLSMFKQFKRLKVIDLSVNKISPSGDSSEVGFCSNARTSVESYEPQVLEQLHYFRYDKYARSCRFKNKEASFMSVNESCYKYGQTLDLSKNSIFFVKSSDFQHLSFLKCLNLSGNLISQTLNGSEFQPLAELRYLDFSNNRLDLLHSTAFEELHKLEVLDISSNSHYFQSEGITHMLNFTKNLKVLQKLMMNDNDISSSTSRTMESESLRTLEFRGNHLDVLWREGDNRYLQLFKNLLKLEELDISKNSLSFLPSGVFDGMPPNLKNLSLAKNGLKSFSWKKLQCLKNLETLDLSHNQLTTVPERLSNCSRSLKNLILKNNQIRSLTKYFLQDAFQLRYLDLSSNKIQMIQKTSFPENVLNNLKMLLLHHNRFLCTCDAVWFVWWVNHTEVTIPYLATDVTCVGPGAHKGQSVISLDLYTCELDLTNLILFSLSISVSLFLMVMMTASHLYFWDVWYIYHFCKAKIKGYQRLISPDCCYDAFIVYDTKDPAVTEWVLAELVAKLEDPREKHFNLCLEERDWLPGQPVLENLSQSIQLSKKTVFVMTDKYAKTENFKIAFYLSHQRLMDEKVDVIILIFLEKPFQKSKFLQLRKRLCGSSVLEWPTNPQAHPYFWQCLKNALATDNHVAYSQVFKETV
Description: TLR7 inhibition reporter assay (HEK-Blue cells, SEAP reporter, gardiquimod stimulation). The following applies: HEK-Blue cells overexpressing human TLR7, SEAP reporter, gardiquimod 7.5 μM; read-out: TLR7 IC50. In short, it runs like this: as §1

What is called IC50 is the midpoint of a concentration-inhibition curve. With `COC1CN(C2CCC(c3nc4c(C(C)C)c(-c5cn6ncnc6c(C)c5C)[nH]c4s3)CC2)C1` (single isomer, unassigned) [Example 188, 5-(7,8-dimethyl-[1,2,4]triazolo[1,5-a]pyridin-6-yl)-6-isopropyl-2-(4-(3-methoxyazetidin-1-yl)cyclohexyl)-4H-pyrrolo[3,2-d]thiazole], the IC50 was found to be 10800 nM in experiment [1], 0.58 nM in experiment [2] and 0.71 nM in experiment [3].
Take `Cc1cc(-c2[nH]c3sc(C4CCN(CC(C)(C)O)CC4)nc3c2C(C)C)cc(C)n1` [Example 29, 1-(4-(5-(2,6-dimethylpyridin-4-yl)-6-isopropyl-4H-pyrrolo[3,2-d]thiazol-2-yl)piperidin-1-yl)-2-methylpropan-2-ol]: the IC50 in experiment [1] worked out at 216 nM; in experiment [2] it was 1.91 nM; in experiment [3], 18.4 nM.
For `COc1cc(-c2[nH]c3sc(C4CCC(N5CCNC(=O)C5)CC4)nc3c2C)cn2ncnc12` (single isomer, unassigned) [Example 276, 4-(4-(5-(8-methoxy-[1,2,4]triazolo[1,5-a]pyridin-6-yl)-6-methyl-4H-pyrrolo[3,2-d]thiazol-2-yl)cyclohexyl)piperazin-2-one] the same measures were > 50000 nM, > 3130 nM and 975 nM.
For `Cc1cc(-c2[nH]c3sc(C4CCC(NCC5(C)COC5)CC4)nc3c2C(C)C)cn2ncnc12` (single isomer, unassigned) [Example 134, 4-(6-isopropyl-5-(8-methyl-[1,2,4]triazolo[1,5-a]pyridin-6-yl)-4H-pyrrolo[3,2-d]thiazol-2-yl)-N-((3-methyloxetan-3-yl)methyl)cyclohexan-1-amine] the same measures were 16100 nM, 1.28 nM and 1.23 nM.
The like results for `CC(=O)N1CCN(C(=O)c2nc3c(C(C)C)c(-c4cn5ncnc5c(C)c4C)[nH]c3s2)CC1` [Example 375, 1-(4-(5-(7,8-dimethyl-[1,2,4]triazolo[1,5-a]pyridin-6-yl)-6-isopropyl-4H-pyrrolo[3,2-d]thiazole-2-carbonyl)piperazin-1-yl)ethan-1-one] were, in that order, 35600 nM, 8.4 nM and 19.9 nM.
Consider `Cc1c(-c2[nH]c3sc(C4CCC(N(C)C(C)C)CC4)nc3c2C(C)C)cn2ncnc2c1C` (single isomer, unassigned) [Example 222, 4-(5-(7,8-dimethyl-[1,2,4]triazolo[1,5-a]pyridin-6-yl)-6-isopropyl-4H-pyrrolo[3,2-d]thiazol-2-yl)-N-isopropyl-N-methylcyclohexan-1-amine], for which the concentration for half-maximal inhibition (IC50) came to 30400 nM in experiment [1], 1.94 nM in experiment [2] and 0.75 nM in experiment [3].
`Cc1c(-c2[nH]c3sc(C4CCC(NCC(=O)N(C)C)CC4)nc3c2C(C)C)cn2ncnc2c1C` (single isomer, unassigned) [Example 205, 2-((4-(5-(7,8-dimethyl-[1,2,4]triazolo[1,5-a]pyridin-6-yl)-6-isopropyl-4H-pyrrolo[3,2-d]thiazol-2-yl)cyclohexyl)amino)-N,N-dimethylacetamide]: the 50% inhibitory concentration (IC50) worked out at 21500 nM in experiment [1], 2.33 nM in experiment [2] and 6.66 nM in experiment [3].
On to `Cc1cc(-c2[nH]c3sc(C4CCC(NCC5(CO)CC5)CC4)nc3c2C(C)C)cn2ncnc12` (single isomer, unassigned) [Example 142, (1-(((4-(6-isopropyl-5-(8-methyl-[1,2,4]triazolo[1,5-a]pyridin-6-yl)-4H-pyrrolo[3,2-d]thiazol-2-yl)cyclohexyl)amino)methyl)cyclopropyl)methanol], for which the half-maximal inhibitory concentration (IC50) in experiment [1] is 6970 nM; in experiment [2], 2.7 nM; in experiment [3] it was 2.08 nM.
For `Cc1c(-c2[nH]c3sc(C4CCC(N5CCNC(=O)C5)CC4)nc3c2C(C)C)cn(C)c(=O)c1C` (single isomer, unassigned) [Example 259, 4-(4-(6-isopropyl-5-(1,4,5-trimethyl-6-oxo-1,6-dihydropyridin-3-yl)-4H-pyrrolo[3,2-d]thiazol-2-yl)cyclohexyl)piperazin-2-one] the same measures were > 50000 nM, 13.8 nM and 23.5 nM.
The like results for `Cc1c(-c2[nH]c3sc(C4CCC(N5CCC6(CC5)COC6)CC4)nc3c2C(C)C)cn2ncnc2c1C` (single isomer, unassigned) [Example 238, 7-(4-(5-(7,8-dimethyl-[1,2,4]triazolo[1,5-a]pyridin-6-yl)-6-isopropyl-4H-pyrrolo[3,2-d]thiazol-2-yl)cyclohexyl)-2-oxa-7-azaspiro[3.5]nonane] were, in that order, 5370 nM, 5.96 nM and 5.4 nM.

Values taken from patent US20230139171A1 (SITA Information Networking Computing UK Limited, priority 2019, published 2023).
